According to ChEMBL document CHEMBL3046404, “The cytotoxic effects of diketopiperaizes against Leishmania donovani promastigotes and amastigotes” (Med Chem Res, 2013):
≈ marks a conversion by molar mass, not a printed value.

Legend:
Leishmania donovani [1] = assay: Antileishmanial activity against promastigote form of Leishmania donovani MHOH/IN/1983/AG83 after 2 hr by MTT assay; format: functional, organism-based
[2] = Toxicity against BALB/c Mus musculus (mouse) peritoneal macrophages assessed as concentration required for cell lysis after 48 hr; format: cell-based, Peritoneal macrophage cell; details: read-out: Activity
Leishmania donovani [3] = assay: microbe, parasite or virus in culture; details: MHOH/IN/1983/AG83, 48 h
Description: Antileishmanial activity against amastigote form of Leishmania donovani MHOH/IN/1983/AG83 infected BALB/c mouse peritoneal macrophages after 48 hr by Geimsa staining method

Leishmania donovani [4] = assay: Antileishmanial activity against promastigote form of Leishmania donovani MHOH/IN/1983/AG83 infected BALB/c mouse assessed as spleen weight at 10 mg/kg, ip administered 1 month post-infection 2 times per week for 30 days (reference value: 509 +/- 25 mg); format: functional; details: route intraperitoneal
Mus musculus [5] = assay: Toxicity against BALB/c Mus musculus (mouse) assessed as blood urea level at 10 mg/kg, ip administered 2 times per week for 30 days (reference value: 29 +/- 6 mg/dl); format: organism-based; design: dose 10 mg/kg, route intraperitoneal; details: in vivo, 720 h
Mus musculus [6] = assay: Toxicity against BALB/c Mus musculus (mouse) assessed as SGOT level at 10 mg/kg, ip administered 2 times per week for 30 days (reference value: 71 +/- 4 IU/l); format: organism-based; design: dose 10 mg/kg, route intraperitoneal; details: in vivo, 720 h
Mus musculus [7] = assay: Toxicity against BALB/c Mus musculus (mouse) assessed as SGPT level at 10 mg/kg, ip administered 2 times per week for 30 days (reference value: 28 +/- 5 IU/l); format: organism-based; design: dose 10 mg/kg, route intraperitoneal; details: in vivo, 720 h
Leishmania donovani [8] = assay: Antileishmanial activity against promastigote form of Leishmania donovani MHOH/IN/1983/AG83 infected BALB/c mouse assessed as liver weight at 10 mg/kg, ip administered 1 month post-infection 2 times per week for 30 days (reference value: 1,746 +/- 56 mg); format: functional; details: route intraperitoneal
Leishmania donovani [9] = assay: Antileishmanial activity against promastigote form of Leishmania donovani MHOH/IN/1983/AG83 infected in BALB/c mouse assessed as reduction in parasite burden in liver at 10 mg/kg, ip administered 1 month post-infection 2 times per week for 30 days relative to control; format: functional; design: scale not given: the % may be the effect or the level left; details: route intraperitoneal
Leishmania donovani [10] = assay: Antileishmanial activity against promastigote form of Leishmania donovani MHOH/IN/1983/AG83 infected BALB/c mouse assessed as spleen weight at 4 mg/kg, ip administered 1 month post-infection 2 times per week for 30 days (reference value: 509 +/- 25 mg); format: functional; details: route intraperitoneal
Leishmania donovani [11] = assay: Antileishmanial activity against promastigote form of Leishmania donovani MHOH/IN/1983/AG83 infected BALB/c mouse assessed as reduction in parasite burden in liver at 4.5 mg/kg, ip administered 1 month post-infection 2 times per week for 30 days relative to control; format: functional; design: scale not given: the % may be the effect or the level left; details: route intraperitoneal
Leishmania donovani [12] = assay: Antileishmanial activity against amastigote form of Leishmania donovani MHOH/IN/1983/AG83 infected BALB/c mouse peritoneal macrophages at 10 ug/ml after 48 hr by Geimsa staining method relative to control; format: functional
Leishmania donovani [13] = assay: Antileishmanial activity against promastigote form of Leishmania donovani MHOH/IN/1983/AG83 infected in BALB/c mouse assessed as reduction in parasite burden in spleen at 10 mg/kg, i.p. administered 1 month post-infection 2 times per week for 30 days relative to control; format: functional; design: scale not given: the % may be the effect or the level left; details: route intraperitoneal
Leishmania donovani [14] = assay: Antileishmanial activity against promastigote form of Leishmania donovani MHOH/IN/1983/AG83 infected in BALB/c mouse assessed as reduction in parasite burden in spleen at 4.5 mg/kg, i.p. administered 1 month post-infection 2 times per week for 30 days relative to control; format: functional; design: scale not given: the % may be the effect or the level left; details: route intraperitoneal
Mus musculus [15] = assay: Toxicity against BALB/c Mus musculus (mouse) assessed as blood urea level at 4 mg/kg, ip administered 2 times per week for 30 days (reference value: 29 +/- 6 mg/dl); format: organism-based; design: dose 4 mg/kg, route intraperitoneal; details: in vivo, 720 h
Mus musculus [16] = assay: Toxicity against BALB/c Mus musculus (mouse) assessed as SGOT level at 4 mg/kg, ip administered 2 times per week for 30 days (reference value: 71 +/- 4 IU/l); format: organism-based; design: dose 4 mg/kg, route intraperitoneal; details: in vivo, 720 h
Mus musculus [17] = assay: Toxicity against BALB/c Mus musculus (mouse) assessed as SGPT level at 4 mg/kg, ip administered 2 times per week for 30 days (reference value: 28 +/- 5 IU/l); format: organism-based; design: dose 4 mg/kg, route intraperitoneal; details: in vivo, 720 h
Leishmania donovani [18] = assay: Antileishmanial activity against promastigote form of Leishmania donovani MHOH/IN/1983/AG83 infected BALB/c mouse assessed as liver weight at 4 mg/kg, ip administered 1 month post-infection 2 times per week for 30 days (reference value: 1,746 +/- 56 mg); format: functional; details: route intraperitoneal
Leishmania donovani [19] = assay: Antileishmanial activity against promastigote form of Leishmania donovani MHOH/IN/1983/AG83 infected BALB/c mouse assessed as reduction in parasite burden in liver at 250 mg/kg, ip administered 1 month post-infection 2 times per week for 30 days relative to control; format: functional, organism-based; design: dose 250 mg/kg; scale not given: the % may be the effect or the level left
Leishmania donovani [20] = assay: Antileishmanial activity against promastigote form of Leishmania donovani MHOH/IN/1983/AG83 infected BALB/c mouse assessed as reduction in parasite burden in spleen at 250 mg/kg, ip administered 1 month post-infection 2 times per week for 30 days relative to control; format: functional, organism-based; design: dose 250 mg/kg; scale not given: the % may be the effect or the level left
Leishmania donovani [21] = assay: Antileishmanial activity against promastigote form of Leishmania donovani MHOH/IN/1983/AG83 infected BALB/c mouse assessed as liver weight at 250 mg/kg, ip administered 1 month post-infection 2 times per week for 30 days (reference value: 1,746 +/- 56 mg); format: functional, organism-based; design: dose 250 mg/kg
Leishmania donovani [22] = assay: Antileishmanial activity against promastigote form of Leishmania donovani MHOH/IN/1983/AG83 infected BALB/c mouse assessed as spleen weight at 250 mg/kg, ip administered 1 month post-infection 2 times per week for 30 days (reference value: 509 +/- 25 mg); format: functional, organism-based; design: dose 250 mg/kg
[23] = Leishmania donovani, MHOH/IN/1983/AG83, 2 h, read-out: IC50

## COc1ccc(N2CC(=O)N(c3ccc(OC)cc3)CC2=O)cc1
Leishmania donovani [1]; [23]
  IC50: 21.8 µg/mL (≈ 66.8 µM)
[2]
  MCC at 48 h: > 60 µg/mL
Leishmania donovani [3]
  IC50: 2.2 µg/mL (≈ 6.74 µM)

## O=C1CN(c2c(Cl)cc(Cl)cc2Cl)C(=O)CN1c1c(Cl)cc(Cl)cc1Cl
Leishmania donovani [1]; [23]
  IC50: 9.4 µg/mL (≈ 19.9 µM)
[2]
  MCC at 48 h: > 70 µg/mL
Leishmania donovani [3]
  IC50: > 10 µg/mL

## O=C1CN(c2cc(Cl)ccc2Cl)C(=O)CN1c1cc(Cl)ccc1Cl
Leishmania donovani [1]; [23]
  IC50: 2.6 µg/mL (≈ 6.43 µM)
[2]
  MCC at 48 h: > 60 µg/mL
Leishmania donovani [3]
  IC50: 6.6 µg/mL (≈ 16.3 µM)

## Cc1ccc(N2CC(=O)N(c3ccc(C)cc3)CC2=O)cc1
Leishmania donovani [4]
  Activity: 184 mg
Leishmania donovani [1]; [23]
  IC50: 1.1 µg/mL (≈ 3.74 µM)
[2]
  MCC at 48 h: > 40 µg/mL
Mus musculus [5]
  Activity: 34 mg/dL
Mus musculus [6]
  Activity: 75 IU/L
Mus musculus [7]
  Activity: 33 IU/L
Leishmania donovani [8]
  Activity: 1127 mg
Leishmania donovani [3]
  IC50: 1.8 µg/mL (≈ 6.12 µM)

## O=C1CN(c2cccc(Cl)c2)C(=O)CN1c1cccc(Cl)c1
Leishmania donovani [9]
  Activity: 94.75%
Leishmania donovani [10]
  Activity: 155 mg
Leishmania donovani [4]
  Activity: 87 mg
Leishmania donovani [11]
  Activity: 69.73%
Leishmania donovani [12]
  Activity: 92.19%
Leishmania donovani [1]; [23]
  IC50: 1 µg/mL (≈ 2.98 µM)
Leishmania donovani [13]
  Activity: 91.35%
Leishmania donovani [14]
  Activity: 67.97%
[2]
  MCC at 48 h: > 25 µg/mL
Mus musculus [15]
  Activity: 28 mg/dL
Mus musculus [5]
  Activity: 29 mg/dL
Mus musculus [16]
  Activity: 69 IU/L
Mus musculus [6]
  Activity: 67 IU/L
Mus musculus [17]
  Activity: 29 IU/L
Mus musculus [7]
  Activity: 28 IU/L
Leishmania donovani [18]
  Activity: 1134 mg
Leishmania donovani [3]
  IC50: 0.53 µg/mL (≈ 1.58 µM)

## SODIUM ANTIMONY GLUCONATE
Leishmania donovani [19]
  Activity: 57.7%
Leishmania donovani [20]
  Activity: 60.2%
Leishmania donovani [21]
  Activity: 1320 mg
Leishmania donovani [22]
  Activity: 303 mg

## N=C(N)c1ccc(OCCCCCOc2ccc(C(=N)N)cc2)cc1 [PENTAMIDINE]
Leishmania donovani [1]; [23]
  IC50: 2.1 µg/mL (≈ 6.17 µM)
[2]
  MCC at 48 h: > 90 µg/mL
Leishmania donovani [3]
  IC50: 2.8 µg/mL (≈ 8.22 µM)

## O=C1CN(c2cccc(Cl)c2Cl)C(=O)CN1c1cccc(Cl)c1Cl
Leishmania donovani [1]; [23]
  IC50: 2.2 µg/mL (≈ 5.44 µM)
[2]
  MCC at 48 h: > 50 µg/mL
Leishmania donovani [3]
  IC50: 4.3 µg/mL (≈ 10.6 µM)

## O=C1CN(c2ccccc2Cl)C(=O)CN1c1ccccc1Cl
Leishmania donovani [9]
  Activity: 80.37%
Leishmania donovani [4]
  Activity: 106 mg
Leishmania donovani [12]
  Activity: 92%
Leishmania donovani [1]; [23]
  IC50: 1.02 µg/mL (≈ 3.04 µM)
Leishmania donovani [13]
  Activity: 71.81%
[2]
  MCC at 48 h: > 25 µg/mL
Mus musculus [5]
  Activity: 30 mg/dL
Mus musculus [6]
  Activity: 72 IU/L
Mus musculus [7]
  Activity: 28 IU/L
Leishmania donovani [8]
  Activity: 976 mg
Leishmania donovani [3]
  IC50: 0.61 µg/mL (≈ 1.82 µM)

## CC(=O)c1cccc(N2CC(=O)N(c3cccc(C(C)=O)c3)CC2=O)c1
Leishmania donovani [1]; [23]
  IC50: 3.4 µg/mL (≈ 9.7 µM)
[2]
  MCC at 48 h: > 50 µg/mL
Leishmania donovani [3]
  IC50: 2 µg/mL (≈ 5.71 µM)

## C[C@@H]1[C@H](O)[C@@H](C)/C=C/C=C/C=C/C=C/C=C/C=C/C=C/[C@H](O[C@@H]2O[C@H](C)[C@@H](O)[C@H](N)[C@@H]2O)C[C@@H]2O[C@](O)(C[C@@H](O)C[C@@H](O)[C@H](O)CC[C@@H](O)C[C@@H](O)CC(=O)O[C@H]1C)C[C@H](O)[C@H]2C(=O)O [AMPHOTERICIN B]
[2]
  MCC at 48 h: > 4 µg/mL
Leishmania donovani [3]
  IC50: 0.1 µg/mL (≈ 0.108 µM)

## O=C1CN(c2ccc(Cl)cc2Cl)C(=O)CN1c1ccc(Cl)cc1Cl
Leishmania donovani [1]; [23]
  IC50: 2.9 µg/mL (≈ 7.18 µM)
[2]
  MCC at 48 h: > 35 µg/mL
Leishmania donovani [3]
  IC50: 6.4 µg/mL (≈ 15.8 µM)

## COc1ccc(Cl)cc1N1CC(=O)N(c2cc(Cl)ccc2OC)CC1=O
Leishmania donovani [1]
  IC50: Not Active
[2]
  MCC at 48 h: > 100 µg/mL

## O=C1CN(c2ccccc2)C(=O)CN1c1ccccc1
Leishmania donovani [4]
  Activity: 166 mg
Leishmania donovani [1]; [23]
  IC50: 1.4 µg/mL (≈ 5.26 µM)
[2]
  MCC at 48 h: > 30 µg/mL
Mus musculus [5]
  Activity: 32 mg/dL
Mus musculus [6]
  Activity: 74 IU/L
Mus musculus [7]
  Activity: 34 IU/L
Leishmania donovani [8]
  Activity: 999 mg
Leishmania donovani [3]
  IC50: 1.6 µg/mL (≈ 6.01 µM)

## O=C1CN(C2CCCCC2)C(=O)CN1C1CCCCC1
Leishmania donovani [9]
  Activity: 81.74%
Leishmania donovani [4]
  Activity: 139 mg
Leishmania donovani [12]
  Activity: 84.66%
Leishmania donovani [1]; [23]
  IC50: 0.7 µg/mL (≈ 2.51 µM)
Leishmania donovani [13]
  Activity: 80.95%
[2]
  MCC at 48 h: > 50 µg/mL
Mus musculus [5]
  Activity: 31 mg/dL
Mus musculus [6]
  Activity: 73 IU/L
Mus musculus [7]
  Activity: 30 IU/L
Leishmania donovani [8]
  Activity: 1076 mg
Leishmania donovani [3]
  IC50: 1.1 µg/mL (≈ 3.95 µM)
